Tests used:
[1] = biological target: PARP1 (Homo sapiens (Human), UniProt P09874); experiment: PARP fluorescence anisotropy binding assay, PARP1
Description: Recombinant full length 6HIS tagged PARP1 protein was diluted to 6 nM with 50 mM Tris pH 8, 0.001% Triton X100, 10 mM MgCl2, 150 mM NaCl and incubated for four hours with an equivalent volume of 2 nM fluorescent probe diluted with 50 mM Tris pH 8, 0.001% Triton X100, 10 mM MgCl2, 150 mM NaCl. The final DMSO concentration of the probe was kept below 1% (v/v).
Fluorescence anisotropy of the probe when bound to the proteins was measured using a BMG Pherastar FSX® in the presence of test compounds or solvent control and the effect on anisotropy determined. % inhibition values for different test compound concentrations were calculated and fitted to a four parameter logistic plot in order to determine the IC50 value. Where necessary, the compound K, can be determined from the IC50 value using a Munson Rodbard equation defined in Anal Biochem. 1980 Sep.

[2] = biological target: PARP2 (Homo sapiens (Human), UniProt Q9UGN5); experiment: PARP fluorescence anisotropy binding assay, PARP2
Description: Recombinant full length PARP2 protein was diluted to 6 nM with 50 mM Tris pH 8, 0.001% Triton X100, 10 mM MgCl2, 150 mM NaCl and incubated for four hours with an equivalent volume of 2 nM fluorescent probe diluted with 50 mM Tris pH 8, 0.001% Triton X100, 10 mM MgCl2, 150 mM NaCl. The final DMSO concentration of the probe was kept below 1% (v/v).
Fluorescence anisotropy of the probe when bound to the proteins was measured using a BMG Pherastar FSX® in the presence of test compounds or solvent control and the effect on anisotropy determined. % inhibition values for different test compound concentrations were calculated and fitted to a four parameter logistic plot in order to determine the IC50 value.

Chain of PARP2 (Q9UGN5 whole entry): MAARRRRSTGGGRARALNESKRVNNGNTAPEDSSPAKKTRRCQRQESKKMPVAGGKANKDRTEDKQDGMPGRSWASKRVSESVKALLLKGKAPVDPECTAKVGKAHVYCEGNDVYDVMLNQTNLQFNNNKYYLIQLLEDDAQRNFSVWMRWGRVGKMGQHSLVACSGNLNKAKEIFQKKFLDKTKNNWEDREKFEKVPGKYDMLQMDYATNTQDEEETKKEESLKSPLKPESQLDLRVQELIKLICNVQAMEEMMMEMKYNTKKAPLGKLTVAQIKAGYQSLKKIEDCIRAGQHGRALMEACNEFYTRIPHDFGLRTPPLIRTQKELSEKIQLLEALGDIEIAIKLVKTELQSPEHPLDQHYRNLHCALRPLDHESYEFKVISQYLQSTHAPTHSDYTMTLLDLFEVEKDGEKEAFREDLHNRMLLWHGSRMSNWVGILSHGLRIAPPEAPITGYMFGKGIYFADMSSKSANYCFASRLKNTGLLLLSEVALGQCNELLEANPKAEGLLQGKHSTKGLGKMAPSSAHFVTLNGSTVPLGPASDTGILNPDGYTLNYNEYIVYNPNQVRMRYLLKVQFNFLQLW
Chain of PARP1 (P09874 whole entry): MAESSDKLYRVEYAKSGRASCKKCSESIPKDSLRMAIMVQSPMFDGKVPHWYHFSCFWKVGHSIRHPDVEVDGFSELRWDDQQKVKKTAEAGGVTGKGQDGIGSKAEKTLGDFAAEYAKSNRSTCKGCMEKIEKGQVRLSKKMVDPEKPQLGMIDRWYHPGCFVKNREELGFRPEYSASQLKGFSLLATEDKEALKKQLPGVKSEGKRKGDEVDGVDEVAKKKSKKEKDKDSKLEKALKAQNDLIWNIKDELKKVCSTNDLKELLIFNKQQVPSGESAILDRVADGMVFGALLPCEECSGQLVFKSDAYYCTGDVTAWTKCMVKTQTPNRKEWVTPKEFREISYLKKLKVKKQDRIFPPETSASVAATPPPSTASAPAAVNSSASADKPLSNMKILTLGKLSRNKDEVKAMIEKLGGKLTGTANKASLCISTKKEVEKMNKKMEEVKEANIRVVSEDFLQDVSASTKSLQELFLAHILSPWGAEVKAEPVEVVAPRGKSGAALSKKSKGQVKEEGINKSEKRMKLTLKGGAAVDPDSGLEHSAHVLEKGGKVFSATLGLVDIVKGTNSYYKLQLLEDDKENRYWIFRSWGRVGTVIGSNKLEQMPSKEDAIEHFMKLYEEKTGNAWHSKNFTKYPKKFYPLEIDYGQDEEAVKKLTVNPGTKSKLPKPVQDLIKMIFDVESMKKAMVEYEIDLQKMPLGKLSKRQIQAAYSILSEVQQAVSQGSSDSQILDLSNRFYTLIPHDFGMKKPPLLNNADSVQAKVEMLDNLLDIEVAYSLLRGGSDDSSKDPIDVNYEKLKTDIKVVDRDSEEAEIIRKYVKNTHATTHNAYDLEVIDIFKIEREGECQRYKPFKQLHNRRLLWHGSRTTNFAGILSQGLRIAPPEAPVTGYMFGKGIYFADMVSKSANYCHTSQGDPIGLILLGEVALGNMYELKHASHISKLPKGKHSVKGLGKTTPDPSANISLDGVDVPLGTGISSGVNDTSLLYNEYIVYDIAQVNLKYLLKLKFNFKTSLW

SMILES	IC50 [1] [nM]	IC50 [2] [nM]
CNC(=O)c1ccc(N2CCN(Cc3ccc4nc(C(C)C)c(=O)[nH]c4c3F)CC2)cn1 [Example 53, 5-[4-[(5-fluoro-2-isopropyl-3-oxo-4H-quinoxalin-6-yl)methyl]piperazin-1-yl]-N-methyl-pyridine-2-carboxamide]	26	> 100000
CNC(=O)c1ccc(N2CCN(Cc3ccc4nc(C(F)(F)F)c(=O)[nH]c4c3F)CC2)cn1 [Example 50, 5-[4-[[5-fluoro-3-oxo-2-(trifluoromethyl)-4H-quinoxalin-6-yl]methyl]piperazin-1-yl]-N-methyl-pyridine-2-carboxamide]	60	35000
CNC(=O)c1ccc(N2CCN(Cc3ccc4nc(C5CC5)c(=O)[nH]c4c3F)CC2)cn1 [Example 56, 5-[4-[(2-cyclopropyl-5-fluoro-3-oxo-4H-quinoxalin-6-yl)methyl]piperazin-1-yl]-N-methyl-pyridine-2-carboxamide]	8	> 100000
CCc1nc2ccc(CN3CCN(c4ccc(C(=O)NC)nc4C)CC3)c(Cl)c2[nH]c1=O [Example 11, 5-[4-[(5-chloro-2-ethyl-3-oxo-4H-quinoxalin-6-yl)methyl]piperazin-1-yl]-N,6-dimethyl-pyridine-2-carboxamide]	3	–
CNC(=O)c1ccc(N2CCN(Cc3ccc4nc(OC)c(=O)[nH]c4c3C)CC2)c(C)n1 [Example 57, 5-[4-[(2-methoxy-5-methyl-3-oxo-4H-quinoxalin-6-yl)methyl]piperazin-1-yl]-N,6-dimethyl-pyridine-2-carboxamide]	11	> 100000
CCNC(=O)c1ccc(N2CCN(Cc3ccc4nc(C)c(=O)[nH]c4c3F)CC2)c(C)n1 [Example 46, N-ethyl-5-[4-[(5-fluoro-2-methyl-3-oxo-4H-quinoxalin-6-yl)methyl]piperazin-1-yl]-6-methyl-pyridine-2-carboxamide]	10	> 100000
CCc1nc2ccc(CN3CCN(c4ccc(C(=O)NC)nc4)CC3)c(Cl)c2[nH]c1=O [Example 10, 5-[4-[(5-chloro-2-ethyl-3-oxo-4H-quinoxalin-6-yl)methyl]piperazin-1-yl]-N-methyl-pyridine-2-carboxamide]	13	–
CNC(=O)c1ccc(N2CCN(Cc3ccc4ncc(=O)[nH]c4c3F)CC2)c(F)n1 [Example 36, 6-fluoro-5-[4-[(5-fluoro-3-oxo-4H-quinoxalin-6-yl)methyl]piperazin-1-yl]-N-methyl-pyridine-2-carboxamide]	22	> 100000
Cc1nc2ccc(CN3CCN(c4ccc(C(N)=O)nc4F)CC3)c(F)c2[nH]c1=O [Example 22, 6-fluoro-5-[4-[(5-fluoro-2-methyl-3-oxo-4H-quinoxalin-6-yl)methyl]piperazin-1-yl]pyridine-2-carboxamide]	6	87000
CNC(=O)c1ccc(N2CCN(Cc3ccc4nc(C(C)C)c(=O)[nH]c4c3F)CC2)c(C)n1 [Example 52, 5-[4-[(5-fluoro-2-isopropyl-3-oxo-4H-quinoxalin-6-yl)methyl]piperazin-1-yl]-N,6-dimethyl-pyridine-2-carboxamide]	85	3800
CCc1nc2ccc(CN3CCN(c4ccc(C(=O)NC)nc4)CC3)c(C)c2[nH]c1=O [Example 44, 5-[4-[(2-ethyl-5-methyl-3-oxo-4H-quinoxalin-6-yl)methyl]piperazin-1-yl]-N-methyl-pyridine-2-carboxamide]	128	> 100000
CNC(=O)c1ccc(N2CCN(Cc3ccc4nc(C5CC5)c(=O)[nH]c4c3F)CC2)c(F)n1 [Example 54, 5-[4-[(2-cyclopropyl-5-fluoro-3-oxo-4H-quinoxalin-6-yl)methyl]piperazin-1-yl]-6-fluoro-N-methyl-pyridine-2-carboxamide]	111	> 100000
CNC(=O)c1ccc(N2CCN(Cc3ccc4ncc(=O)[nH]c4c3F)CC2)c(C)n1 [Example 35, 5-[4-[(5-fluoro-3-oxo-4H-quinoxalin-6-yl)methyl]piperazin-1-yl]-N,6-dimethyl-pyridine-2-carboxamide]	30	> 100000
CNC(=O)c1ccc(N2CCN(Cc3ccc4nc(C)c(=O)[nH]c4c3C)CC2)c(C(F)F)n1 [Example 60, 6-(difluoromethyl)-5-[4-[(2,5-dimethyl-3-oxo-4H-quinoxalin-6-yl)methyl]piperazin-1-yl]-N-methyl-pyridine-2-carboxamide]	23	> 100000
CCc1nc2ccc(CN3CCN(c4ccc(C(=O)NC)nc4C)CC3)c(C)c2[nH]c1=O [Example 42, 5-[4-[(2-ethyl-5-methyl-3-oxo-4H-quinoxalin-6-yl)methyl]piperazin-1-yl]-N,6-dimethyl-pyridine-2-carboxamide]	5	> 88000
CNC(=O)c1ccc(N2CCN(Cc3ccc4ncc(=O)[nH]c4c3F)CC2)cn1 [Example 33, 5-[4-[(5-fluoro-3-oxo-4H-quinoxalin-6-yl)methyl]piperazin-1-yl]-N-methyl-pyridine-2-carboxamide]	167	> 100000
CNC(=O)c1ccc(N2CCN(Cc3ccc4nc(C(C)C)c(=O)[nH]c4c3F)CC2)c(F)n1 [Example 51, 6-fluoro-5-[4-[(5-fluoro-2-isopropyl-3-oxo-4H-quinoxalin-6-yl)methyl]piperazin-1-yl]-N-methyl-pyridine-2-carboxamide]	6	1200
CNC(=O)c1ccc(N2CCN(Cc3ccc4nc(C)c(=O)[nH]c4c3Cl)CC2)cn1 [Example 16, 5-[4-[(5-chloro-2-methyl-3-oxo-4H-quinoxalin-6-yl)methyl]piperazin-1-yl]-N-methyl-pyridine-2-carboxamide]	10	–
CCc1nc2ccc(CN3CCN(c4ccc(C(=O)NC)nc4Cl)CC3)c(Cl)c2[nH]c1=O [Example 8, 6-chloro-5-[4-[(5-chloro-2-ethyl-3-oxo-4H-quinoxalin-6-yl)methyl]piperazin-1-yl]-N-methyl-pyridine-2-carboxamide]	4	–
CCc1nc2ccc(CN3CCN(c4ccc(C(=O)NC)nc4F)CC3)c(C)c2[nH]c1=O [Example 43, 5-[4-[(2-ethyl-5-methyl-3-oxo-4H-quinoxalin-6-yl)methyl]piperazin-1-yl]-6-fluoro-N-methyl-pyridine-2-carboxamide]	5	> 100000
CNC(=O)c1ccc(N2CCN(Cc3ccc4nc(C)c(=O)[nH]c4c3C)CC2)cn1 [Example 2, 5-[4-[(2,5-dimethyl-3-oxo-4H-quinoxalin-6-yl)methyl]piperazin-1-yl]-N-methyl-pyridine-2-carboxamide]	11	15000
Cc1nc2ccc(CN3CCN(c4ccc(C(N)=O)nc4F)CC3)c(C)c2[nH]c1=O [Example 5, 5-[4-[(2,5-dimethyl-3-oxo-4H-quinoxalin-6-yl)methyl]piperazin-1-yl]-6-fluoro-pyridine-2-carboxamide]	5	> 63000
CNC(=O)c1ccc(N2CCN(Cc3ccc4nc(C)c(=O)[nH]c4c3Cl)CC2)c(F)n1 [Example 17, 5-[4-[(5-chloro-2-methyl-3-oxo-4H-quinoxalin-6-yl)methyl]piperazin-1-yl]-6-fluoro-N-methyl-pyridine-2-carboxamide]	6	–
